The values that follow come from patent US9499517B2, “Substituted prolines / piperidines as orexin receptor antagonists” (Eolas Therapeutics, Inc., priority 2012, dated 2016).

The test system of data set [1] is mice. The experiment in a line: Food self-administration (lever press for food pellets) in WT and Hcrt-R1 KO mice. The conditions noted are these: systemic administration 30 min prior to the session. It is filed as in vivo.
In data set [2] the target is T1, OX1 (Homo sapiens, UniProt O43613).
T1 construct: expressed in transfected cells; host or cells: CHO (CHO-OX1, kept under G418 or Blasticidin selection)
T1 sequence (O43613 1-425): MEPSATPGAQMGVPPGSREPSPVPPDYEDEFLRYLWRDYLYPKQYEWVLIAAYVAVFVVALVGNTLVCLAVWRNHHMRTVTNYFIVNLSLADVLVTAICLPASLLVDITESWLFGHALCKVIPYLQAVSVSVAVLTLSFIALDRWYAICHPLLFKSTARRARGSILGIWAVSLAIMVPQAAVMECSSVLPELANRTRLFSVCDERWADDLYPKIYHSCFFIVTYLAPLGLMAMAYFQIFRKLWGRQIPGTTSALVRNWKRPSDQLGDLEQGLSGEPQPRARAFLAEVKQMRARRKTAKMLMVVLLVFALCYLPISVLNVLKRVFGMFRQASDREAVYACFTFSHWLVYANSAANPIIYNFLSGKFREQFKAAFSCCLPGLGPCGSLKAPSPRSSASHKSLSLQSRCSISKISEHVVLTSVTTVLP
Kind of data set: Orexin receptor cell-based functional assay: [Ca2+]i by FLIPR in CHO-OX1 cells, antagonism of EC90 of OXA. Here is the method: Orexin Receptor Cell-based Functional Assay.
Measurement of [Ca^2+]i using a FLIPR: CHO—OX1 or CHO—OX2 cells are seeded into black-walled clear-base 384-well plates (Costar) at a density of 20,000 cells per well in F12-K medium supplemented with 10% FBS and selection antibiotic (500 ug/ml G418 or 15 ug/ml Blasticidin) and cultured overnight. The cells are incubated with equal volume of calcium 4 loading buffer (Molecular Devices, Inc.) containing 2.5 mM probenecid at 37° C. for 30 min, followed by putative OX1 or OX2 receptor antagonists (dose-range 0.1 nM-10 μM) for another 30 min.

In data set [3] the target is T2, CYP3A4 (Homo sapiens, UniProt P08684).
T2 construct: pre-incubated with human liver microsomes and NADPH for 30 minutes; from tissue; host or cells: human liver microsomes
T2 sequence (P08684 whole entry): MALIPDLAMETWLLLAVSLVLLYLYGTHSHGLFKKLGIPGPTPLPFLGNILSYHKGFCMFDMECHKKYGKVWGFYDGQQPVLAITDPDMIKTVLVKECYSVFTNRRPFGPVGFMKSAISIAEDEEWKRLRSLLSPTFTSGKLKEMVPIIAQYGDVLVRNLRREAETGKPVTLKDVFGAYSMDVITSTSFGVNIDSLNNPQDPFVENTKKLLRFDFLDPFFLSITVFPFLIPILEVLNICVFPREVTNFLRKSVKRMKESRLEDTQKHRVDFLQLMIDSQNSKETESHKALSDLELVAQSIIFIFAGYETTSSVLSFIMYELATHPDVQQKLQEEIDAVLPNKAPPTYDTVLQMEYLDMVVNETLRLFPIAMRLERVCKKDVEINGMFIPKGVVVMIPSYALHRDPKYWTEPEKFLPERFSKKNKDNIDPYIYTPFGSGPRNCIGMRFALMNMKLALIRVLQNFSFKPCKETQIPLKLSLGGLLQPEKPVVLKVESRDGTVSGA
The experiment in a line: Cytochrome P450 inhibition assay: midazolam hydroxylation to 1'-hydroxymidazolam in human liver microsomes, with or without 30 min pre-incubation. The conditions noted are these: human, human liver microsomes, probe midazolam, 10 μM test compound; for inhibition at 5 min, 10 µM: read-out: CYP3A4 % inh (10 μM, 5 min); for inhibition at 30 min, 10 µM: 30 min (time-dependent inhibition), read-out: CYP3A4 % inh (10 μM, 30 min). Format: in vitro ADME. Here is the method: (§1) Cytochrome P450 Inhibition Assay.
(§2) Compounds were tested for the potential to induce drug-drug interactions by inhibition of the cytochrome P450 3A4 isoform. The assay evaluated the metabolism of a specific marker substrate (CYP3A4, midazolam hydroxylation to 1′-hydroxymidazolam) in the presence or absence of 10 μM test compound. […] A specific inhibitor for the isoform was included in each run to validate the system. An appropriate positive control inhibitor was used. Mechanism-based inhibition was investigated where warranted using a classical method. […] The percent inhibition of the pre-incubated and non-pre-incubated samples were compared as a preliminary evaluation of time-dependent inhibition.
A general note: Liver microsomes are vesicles of endoplasmic reticulum, rich in cytochrome P450 enzymes.

Data set [4] concerns the target T3, cytochrome P450 3A4 isoform (Homo sapiens, UniProt P08684).
T3 construct: pre-incubated with human liver microsomes and NADPH for 30 minutes; from tissue; host or cells: human liver microsomes
The description is as above. It is filed as in vitro ADME. The conditions noted are these: relative to Examples 112 and 114 (Table 4). The procedure:
as §1, §2

Data set [5] relates to mice. Kind of data set: Nicotine self-administration assay (IV nicotine) in WT, Hcrt-R1 KO and virally-rescued mice. It is filed as in vivo. An excerpt:
Nicotine Self-Administration Assay
Development of Animal Subjects.
To generate Hcrt-R1^+/+ and […] mice, breeding pairs of male and female Hcrt-R1^+/− mice that were backcrossed >10 generations on a C57BL/6 background were obtained from Jackson Laboratory (Bar Harbor, Me.). For all experiments, mice weighing 25-35 g were housed in groups of 2-3 per cage, in a temperature-controlled vivarium under a reversed 12-h light/dark cycle (lights off at 8 am). Food and water were provided ad libitum until behavioral training commenced. During training, mice were food-restricted to maintain ˜85-90% of their free-feeding body weight. Behavioral testing occurred during the dark portion of the light/dark cycle between the hours of 9 am-1 pm, during the early portion of the dark phase of the cycle. All procedures were conducted in strict adherence with the National Institutes of Health Guide for the Care and Use of Laboratory Animals and were approved by the Institutional Animal Care and Use Committee of The Scripps Research Institute.
Mice were anesthetized by inhalation of 1-3% isoflurane in oxygen and silastic catheters were inserted into the jugular veins. […] During the TO period, responding on the lever was recorded but without scheduled consequence. […]

[6] abbreviates: Table 2A, bioactivity with respect to OX1, CHO-OX1 cells, FLIPR, read-out: OX1.

Read-outs that look alike come from different tables or passages of the source.

T3 sequence (P08684 whole entry, canonical isoform): as the sequence (P08684 whole entry) above

As to `Cc1nc(C(=O)N2CCC[C@@H](C)[C@H]2CNc2ccc(C(F)(F)F)cn2)c(-c2ccc(F)cc2)s1` (racemic) [Example 11, rac-(5-(4-fluorophenyl)-2-methylthiazol-4-yl)((2S,3R)-3-methyl-2-(((5-(trifluoromethyl)pyridin-2-yl)amino)methyl)piperidin-1-yl)methanone], the “food self-administration (SA)” value in data set [1] is “no effect on food SA”. For `CC(=O)NC1CCC(CNC(=O)c2cccc3cccnc23)N(C(=O)c2ccccc2-c2ccccc2)C1` (racemic) [Example 43, rac-N-((5-acetamido-1-(biphenylcarbonyl)piperidin-2-yl)methyl)quinoline-8-carboxamide], in data set [2] (Table 2, IC50 bioactivity, CHO-OX1 cells, FLIPR, read-out: OX1), the IC50 was 2000 nM. In the case of `Cc1ccc(-c2ncccn2)c(C(=O)N2CCC[C@@H](C)[C@H]2CNc2ccc(C(F)(F)F)cn2)c1` (racemic) [Example 112, rac-((2S,3R)-3-methyl-2-(((5-(trifluoromethyl)pyridin-2-yl)amino)methyl)piperidin-1-yl)(5-methyl-2-(pyrimidin-2-yl)phenyl)methanone], the IC50 in data set [2] (Table 4, read-out: OX1 IC50) stood at 42 nM. In data set [3], the inhibition at 5 min, 10 µM came out at 72% and the inhibition at 30 min, 10 µM was 94%.

As for `Cc1ccc(-n2nccn2)c(C(=O)N2CCC[C@@H](C)[C@H]2CNc2ccc(C(F)(F)F)cn2)c1` (racemic) [Example 114, rac-((2S,3R)-3-methyl-2-(((5-(trifluoromethyl)pyridin-2-yl)amino)methyl)piperidin-1-yl)(5-methyl-2-(2H-1,2,3-triazol-2-yl)phenyl)methanone], in data set [3], the inhibition at 5 min, 10 µM amounted to 78% and the inhibition at 30 min, 10 µM was found to be 93%. With `C[C@@H]1CCCN(C(=O)c2cc(F)ccc2-c2ncccn2)[C@@H]1CNc1ncc(C(F)(F)F)cn1` [Compound A227, (5-Fluoro-2-(pyrimidin-2-yl)phenyl)((2S,3R)-3-methyl-2-(((5-(trifluoromethyl)pyrimidin-2-yl)amino)methyl)piperidin-1-yl)methanone], the inhibition at 30 min, 10 µM in data set [3] stood at 58%. Same read-out and setting: the value for `C[C@@H]1CCCN(C(=O)c2c(F)cccc2-n2nccn2)[C@@H]1CNc1ncc(C(F)(F)F)cn1` [Compound A259, (2-fluoro-6-(2H-1,2,3-triazol-2-yl)phenyl)((2S,3R)-3-methyl-2-(((5-(trifluoromethyl)pyrimidin-2-yl)amino)methyl)piperidin-1-yl)methanone] was 41%. Regarding `Cc1ccc(-n2nccn2)c(C(=O)N2CCC[C@@H](C)[C@H]2CNc2nnc(C(F)(F)F)s2)c1` [Example A102, ((2S,3R)-3-Methyl-2-(((5-(trifluoromethyl)-1,3,4-thiadiazol-2-yl)amino)methyl)piperidin-1-yl)(5-methyl-2-(2H-1,2,3-triazol-2-yl)phenyl)methanone], the IC50 in data set [2] (setting [6]) was found to be 61 nM. Same read-out and setting: the value for `Cc1ccc(-n2nccn2)c(C(=O)N2CCC[C@@H](C)[C@H]2CNc2ncc(C#N)cc2F)n1` [Example A193, 5-Fluoro-6-((((2S,3R)-3-methyl-1-(6-methyl-3-(2H-1,2,3-triazol-2-yl)picolinoyl)piperidin-2-yl)methyl)amino)nicotinonitrile] was 100 nM.

Turning to `C[C@@H]1CCCN(C(=O)c2cc(Cl)ccc2-c2ncccn2)[C@@H]1CNc1ncc(C(F)(F)F)cn1` [Example A201, (5-Chloro-2-(pyrimidin-2-yl)phenyl)((2S,3R)-3-methyl-2-(((5-(trifluoromethyl)pyrimidin-2-yl)amino)methyl)piperidin-1-yl)methanone], in data set [3], the inhibition at 30 min, 10 µM stood at 59%. Also, the “inhibition of CYP3A4” value in data set [4] is on record as “reduced inhibition of CYP3A4”.

On to `C[C@@H]1CCCN(C(=O)c2cc(F)ccc2-n2nccn2)[C@@H]1CNc1ncc(C(F)(F)F)cn1` [Example A207, (5-Fluoro-2-(2H-1,2,3-triazol-2-yl)phenyl)((2S,3R)-3-methyl-2-(((5-(trifluoromethyl)pyrimidin-2-yl)amino)methyl)piperidin-1-yl)methanone], for which the inhibition at 30 min, 10 µM in data set [3] was 52%. For the same molecule, the “inhibition of CYP3A4” value in data set [4] was “reduced inhibition of CYP3A4”.

For `CC1(C)OC[C@H](NC(=O)Nc2ccc(Br)cc2Br)[C@H](c2ccccc2)O1` [JNJ 10397049], the “nicotine self-administration (SA)” value is given as “marginal decrease in nicotine SA” in data set [5] (KO mice); “no effect on nicotine SA” in data set [5] (doses 0, 5 and 10 mg/kg, WT mice). In addition, the “food self-administration (SA)” value in data set [1] is listed as “no effect on SA of food pellets”. Take `Cc1nc(C(=O)N2CCCC(C)(C)C2CNc2ncc(C(F)(F)F)cn2)c(-c2ccc(F)cc2)s1` (centres unmarked) [SR-12364, reference compound]: in data set [2] (Table 5, read-out: OX1 IC50), the IC50 turned out to be 137 nM. Same read-out and setting: the value for `Cc1nc(C(=O)N2CCCCC2CNc2ncc(C(F)(F)F)cn2)c(-c2ccc(F)cc2)s1` (centres unmarked) [SR-12376, reference compound] was 13 nM.
